Experiments:
P. aeruginosa LpxC = target: T1, P. aeruginosa LpxC (Pseudomonas aeruginosa, UniProt P47205); test: P. aeruginosa LpxC Inhibition Assay; assay type: biochemical; details: 2 nM P. aeruginosa LpxC, 90 min, room temperature; read-out: IC50 (nM), Enzyme inhibitory activity
T1 sequence (P47205 1-303): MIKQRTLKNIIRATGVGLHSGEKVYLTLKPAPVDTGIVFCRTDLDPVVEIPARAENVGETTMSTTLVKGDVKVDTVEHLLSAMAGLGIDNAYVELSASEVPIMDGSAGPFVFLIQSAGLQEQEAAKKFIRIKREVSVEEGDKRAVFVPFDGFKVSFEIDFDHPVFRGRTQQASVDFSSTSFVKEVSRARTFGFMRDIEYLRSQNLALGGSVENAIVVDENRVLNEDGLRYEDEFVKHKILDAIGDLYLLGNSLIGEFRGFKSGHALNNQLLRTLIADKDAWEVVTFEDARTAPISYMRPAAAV
Description: The assay followed the general method of Hyland et al (Journal of Bacteriology 1997 179, 2029-2037: Cloning, expression and purification of UDP-3-O-acyl-GlcNAc deacetylase from Pseudomonas aeruginosa: a metalloamidase of the lipid A biosynthesis pathway) and the radiolabeling procedure is according to Kline et al. supra. Briefly, samples were incubated with 2 nM P. aeruginosa LpxC and 150 nM [3H-Ac]-UDP-3-OR-3-hydroxydecanoyl)-GlcNAc in a total volume of 50 uL for 90 min at room temperature. Reactions were carried out in 96-well polypropylene plates in 50 mM sodium phosphate buffer, pH 7.5, containing 1 mg/mL BSA. Reactions were stopped by the addition of 180 uL of a 3% suspension of activated charcoal powder in 100 mM sodium acetate, pH 7.5. Supernatants were clarified by centrifugation. A portion of the clarified supernatant, containing the enzymatically released [3H]-acetate, was transferred to opaque white 96-well plates containing scintillation fluid. The radioactivity was measured in a Perkin-Elmer/Wallac Trilux Microbeta counter.

P. aeruginosa 27853 = test: MIC broth microdilution, standard panel: P. aeruginosa 27853; assay type: cell-based; details: Pseudomonas aeruginosa, standard panel of organisms
Description: (§1) Bacterial isolates were cultivated from −70° C. frozen stocks by two consecutive overnight passages at 35° C. in ambient air on 5% blood agar (Remel, Lenexa, Kans.). Clinical isolates tested were from a collection composed of isolates collected during clinical trials and recent clinical isolates obtained from various geographically diverse hospitals in the US. Quality control and primary panel strains were from the American Type Culture Collection (ATCC; Rockville, Md.), with the exception of P. aeruginosa PAO200, a strain with a deletion of the mexABoprM genes that was received from Dr. H. Schweizer. […] Strain Z61 (ATCC 35151) is also hypersusceptible to antibacterials. It is thought that the hypersusceptibility of this strain is the result of increased permeability of its outer membrane (Angus B L et al, Antimicrobial Agents and Chemotherapy 1982 21,299-309: Outer membrane permeability in Pseudomonas aeruginosa: Comparison of a wild-type with an antibacterial-supersusceptible mutant).
(§2) Minimum Inhibitory Concentrations (MICs) were determined by the broth microdilution method in accordance with the National Committee for Clinical Laboratory Standards (NCCLS) guidelines. In brief, organism suspensions were are adjusted to a 0.5 McFarland standard to yield a final inoculum between 3×10^5 and 7×10^5 colony-forming units (CFU)/mL. Drug dilutions and inocula were made in sterile, cation adjusted Mueller-Hinton Broth (Remel). An inoculum volume of 100 μl was added to wells containing 100 μl of broth with 2-fold serial dilutions of drug. All inoculated microdilution trays were incubated in ambient air at 35° C. for 18-24 hours. Following incubation, the lowest concentration of the drug that prevented visible growth was recorded as the MIC. Performance of the assay was monitored by the use of laboratory quality-control strains against tobramycin, that has a defined MIC spectrum, in accordance with NCCLS guidelines.

E. coli 25922 = test: MIC broth microdilution, standard panel: E. coli 25922; assay type: cell-based; details: Escherichia coli, standard panel of organisms
Description: as §1, §2

S. aureus 29213 = test: MIC broth microdilution, standard panel: S. aureus 29213; assay type: cell-based; details: Staphylococcus aureus, standard panel of organisms
Description: as §1, §2

[1] = tested on: P. aeruginosa PAO200 mexAB; test: MIC broth microdilution, standard panel: P. aeruginosa PAO200 mexAB; assay type: cell-based; details: Pseudomonas aeruginosa, PAO200MEXAB, read-out: MIC P. aeruginosa PAO200 mexAB
Description: as §1, §2

melting point | SMILES | IC50 (P. aeruginosa LpxC) | MIC (P. aeruginosa 27853) | MIC (E. coli 25922) | MIC (S. aureus 29213) | MIC [1]
64 to 65 °C | O=C(NO)[C@H]1[C@H](O)CCN1C(=O)c1ccc(OC(F)(F)F)cc1 [Example 3, (2R,3R)-3-hydroxy-1-{[4-(trifluoromethoxy)phenyl]carbonyl}pyrrolidine-2-carbohydroxamic acid] | – | – | – | – | –
– | NC[C@H](NC(=O)c1ccc(C#Cc2ccc(NC(=O)CNc3ccccc3)cc2)cc1)C(=O)NO [Example 572, N-{(1S)-1-(aminomethyl)-2-(hydroxyamino)-2-oxoethyl]-4-[(4-{[(phenylamino)acetyl]amino}phenyl)ethynyl]benzamide] | < 100 nM | < 6.25 µg/mL | < 6.25 µg/mL | > 50 µg/mL | < 6.25 µg/mL
– | C[C@@H](O)[C@H](NC(=O)c1ccc(C#Cc2ccc(NC(=O)CNc3cnccn3)cc2)cc1)C(=O)NO [Example 860, N-{(1S,2R)-2-hydroxy-1-[(hydroxyamino)carbonyl]propyl}-4-[(4-{[(pyrazin-2-ylamino)acetyl]amino}phenyl)ethynyl]benzamide] | < 100 nM | < 6.25 µg/mL | < 6.25 µg/mL | > 50 µg/mL | < 6.25 µg/mL
